Values quoted from earlier work as cited in patent US20200316043A1, “PHARMACEUTICAL COMPOSITION COMPRISING CLEVIDIPINE AND PROCESS FOR PREPARATION THEREOF” (Aurobindo Pharma Ltd., priority 2017, published 2020).

Legend:
[1] = target: ileal and aortic smooth muscle and cardiac muscle (Homo sapiens, UniProt Q13936); conditions: EDTA treatment of ileal and aortic smooth muscle and cardiac muscle
ileal and aortic smooth muscle and cardiac muscle, sequence (Q13936 whole entry): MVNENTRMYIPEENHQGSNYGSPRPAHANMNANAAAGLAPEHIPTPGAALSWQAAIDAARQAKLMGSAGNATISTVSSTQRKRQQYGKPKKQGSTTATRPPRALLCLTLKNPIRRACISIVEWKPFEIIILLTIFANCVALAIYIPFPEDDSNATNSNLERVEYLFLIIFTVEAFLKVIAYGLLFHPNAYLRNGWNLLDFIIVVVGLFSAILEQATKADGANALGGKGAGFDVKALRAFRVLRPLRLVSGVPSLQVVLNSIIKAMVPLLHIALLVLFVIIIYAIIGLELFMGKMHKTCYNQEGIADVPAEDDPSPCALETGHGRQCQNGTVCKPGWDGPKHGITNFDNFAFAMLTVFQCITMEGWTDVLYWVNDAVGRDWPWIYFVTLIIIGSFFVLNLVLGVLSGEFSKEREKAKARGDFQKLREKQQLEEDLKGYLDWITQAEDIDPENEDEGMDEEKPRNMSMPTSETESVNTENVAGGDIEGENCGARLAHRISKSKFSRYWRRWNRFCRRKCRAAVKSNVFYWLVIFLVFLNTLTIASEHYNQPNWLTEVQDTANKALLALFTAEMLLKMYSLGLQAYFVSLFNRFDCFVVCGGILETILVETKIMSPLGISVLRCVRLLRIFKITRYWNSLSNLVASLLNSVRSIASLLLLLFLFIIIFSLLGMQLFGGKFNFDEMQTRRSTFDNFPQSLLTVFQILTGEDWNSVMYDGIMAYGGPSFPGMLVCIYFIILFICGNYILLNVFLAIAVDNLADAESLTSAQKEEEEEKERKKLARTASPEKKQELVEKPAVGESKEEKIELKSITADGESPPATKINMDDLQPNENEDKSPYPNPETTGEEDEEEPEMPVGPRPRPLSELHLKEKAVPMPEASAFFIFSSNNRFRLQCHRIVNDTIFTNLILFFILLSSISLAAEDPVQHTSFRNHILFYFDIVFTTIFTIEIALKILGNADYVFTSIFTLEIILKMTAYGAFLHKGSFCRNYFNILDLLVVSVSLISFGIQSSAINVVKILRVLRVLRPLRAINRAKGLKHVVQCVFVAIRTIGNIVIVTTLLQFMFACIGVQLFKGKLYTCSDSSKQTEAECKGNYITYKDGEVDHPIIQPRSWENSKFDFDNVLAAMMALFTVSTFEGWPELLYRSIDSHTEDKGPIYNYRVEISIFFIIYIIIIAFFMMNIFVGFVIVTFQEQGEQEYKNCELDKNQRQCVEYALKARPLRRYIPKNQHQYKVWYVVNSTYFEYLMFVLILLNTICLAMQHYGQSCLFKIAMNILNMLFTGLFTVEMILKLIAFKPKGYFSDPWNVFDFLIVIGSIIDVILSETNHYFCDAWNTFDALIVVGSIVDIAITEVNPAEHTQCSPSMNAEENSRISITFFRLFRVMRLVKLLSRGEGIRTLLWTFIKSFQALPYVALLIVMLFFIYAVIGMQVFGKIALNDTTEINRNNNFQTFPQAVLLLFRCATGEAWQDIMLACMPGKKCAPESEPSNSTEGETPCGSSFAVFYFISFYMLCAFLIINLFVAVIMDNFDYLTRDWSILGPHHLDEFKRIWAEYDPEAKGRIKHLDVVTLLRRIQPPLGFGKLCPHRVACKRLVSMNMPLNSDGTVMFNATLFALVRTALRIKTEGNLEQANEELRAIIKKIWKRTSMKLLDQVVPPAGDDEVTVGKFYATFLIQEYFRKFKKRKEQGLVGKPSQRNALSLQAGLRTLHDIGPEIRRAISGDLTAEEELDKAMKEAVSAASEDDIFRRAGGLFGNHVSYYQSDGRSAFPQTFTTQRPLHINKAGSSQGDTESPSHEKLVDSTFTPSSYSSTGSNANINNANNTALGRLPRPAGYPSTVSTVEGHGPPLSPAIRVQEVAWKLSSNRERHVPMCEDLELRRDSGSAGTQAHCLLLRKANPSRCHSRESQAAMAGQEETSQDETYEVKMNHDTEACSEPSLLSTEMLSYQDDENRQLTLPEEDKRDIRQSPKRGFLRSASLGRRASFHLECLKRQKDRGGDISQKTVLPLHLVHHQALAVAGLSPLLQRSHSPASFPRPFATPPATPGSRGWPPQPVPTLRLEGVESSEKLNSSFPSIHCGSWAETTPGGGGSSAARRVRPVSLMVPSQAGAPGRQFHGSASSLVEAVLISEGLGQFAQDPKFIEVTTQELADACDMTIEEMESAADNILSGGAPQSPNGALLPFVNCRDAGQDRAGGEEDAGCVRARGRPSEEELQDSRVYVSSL

Structure (SMILES) | solubility in lipids | solubility in water | reduction of specific [3H] nitrendipine binding [1]
CCCC(=O)OCOC(=O)C1=C(C)NC(C)=C(C(=O)OC)C1c1cccc(Cl)c1Cl (stereo not drawn) [Clevidipine, butyroxymethyl methyl 4-(2′,3′dichlorophenyl)-1,4-dihydro-2,6-dimethyl-3,5-pyridinedicarboxylate] | moderate to high | low | –
O=C(O)CN(CCN(CC(=O)O)CC(=O)O)CC(=O)O [EDTA, Ethylene Diaminetetraacetic acid] | – | – | 70-95%
